Source: patent publication US20220354834A1, “METHODS AND MATERIALS FOR TREATING NEUROTOXICITY” (Cavion, Inc., priority 2019, published 2022)

Key:
[1] = system: sciatic nerves (BTZ-induced CIPN); test: CIPN-reversal study: sciatic nerve conduction velocity; format: in vivo, Wistar rat; conditions: P > 0.05 ns
Procedure: (§1) Wistar female rats (n=52) (Envigo, Correzzano, Italy) at 10-11 weeks of age were utilized. The study was divided into 2 phases of 4 weeks each. […] Body weight was measured periodically during phase 1 from baseline (day 1) to day 28. At baseline and conclusion of phase 1 (day 28), nerve conduction velocity (NCV) was performed on caudal and sciatic nerves and Dynamic Aesthesiometer Test (DAT) measured mechanical threshold (MT) of the hind paw. […] Body weight was measured periodically from baseline (day 28) to day 56 (termination). NCV and MT were measured in all 4 groups at baseline and on day 35 and 56. […] At termination, sciatic nerves were obtained for β-tubulin polymerization and skin samples were procured for intraepidermal nerve fiber (IENF) density and histopathology.
NCV (meters/second) was obtained from caudal and sciatic nerves with an electromyography tool (Myto 2, ABN Neuro, Firenze, Italy). Caudal NCV was measured by placement of recording needle electrodes distally in the tail with stimulating needle electrodes 5 cm and 10 cm proximal to recording point. Peak latencies of potentials recorded at the 2 sites after nerve stimulation were determined and NCV was calculated. Sciatic NCV was determined by placement of needle recording electrodes near ankle bone and stimulating electrodes close to thigh. Peak latencies were recorded similar to caudal nerve and NCV was calculated. NCV was performed under standard conditions in a temperature-controlled facility (22±2° C.) and rats were under isoflurane anesthesia with monitoring of vital signs.

[2] = system: hind paw mechanical allodynia (BTZ-induced CIPN); test: CIPN-reversal study: Dynamic Aesthesiometer Test, mechanical threshold; format: in vivo, Wistar rat
Procedure: as §1
MT was assessed with the DAT device (Model 37450, Ugo Basile Biological Instruments, Comerio, Italy). After acclimation, a servo-controlled pointed metallic filament (0.5 mm diameter) was placed on plantar surface of the hind paw and exerted a progressive punctate pressure up to 50 grams within 20 seconds. The pressure elicited a voluntary hind paw withdrawal response that was recorded and represented MT index. MT was collected alternatively on each side every 2 minutes on 3 occasions to yield a mean value. Mean MT values represented maximum pressure (grams) tolerated by each rat. Exposure of each animal to mechanical stimulus was limited to 30 seconds.

[3] = system: intraepidermal nerve fibers (BTZ-induced CIPN); test: IENF density and histopathology of plantar glabrous skin; format: in vivo, Wistar rat; conditions: week 8
Procedure: as §1
At day 56, animals were euthanized by CO2 inhalation and tissue samples were procured from 4 rats per group. Right sciatic nerve was frozen in liquid nitrogen for β-tubulin polymerization assay and plantar glabrous skin samples were collected for IENF density.
Plantar glabrous skin samples (5 mm) from hind paws were fixed in 2% PLP (paraformaldehyde-lysine-sodium periodate) for 24 hours at 4° C. and cryoprotected overnight. Samples were serially cut with a cryostat to yield 20 μm sections. Three sections from each footpad were randomly selected and immunostained with rabbit polyclonal anti-protein gene product 9.5 (PGP 9.5; GeneTex, Irvine, Calif., USA) in combination with biotinylated anti-rabbit IgG and Vector SG substrate kit peroxidase (Vector Laboratories, Burlingame, Calif.) using a free-floating protocol. A blinded observer counted total number of immune-positive IENF in each section under light microscopy at high magnification with a microscope video camera. Individual fibers were counted that crossed dermal-epidermal interface. Secondary branches within epidermis were excluded. Length of epidermis was measured to generate linear density of IENF/millimeter as described elsewhere (Canta et al., 2016 Neurobiol Aging 45:136-148).

[4] = In vivo anti-tumor (interference) study: body weight; design: species or system athymic nude mouse; conditions: 1 mg/kg BTZ in combination with 30 mg/kg CX-8998 orally once daily, 28 days
Excerpt: Care and husbandry of mice complied with USDA (U.S. Department of Agriculture) Animal Welfare Act and START IACUC (Institutional Animal Care and Use Committee) regulations. The protocol was reviewed and approved by START IACUC. Mice were individually housed in Sealsafe® Plus ventilated cages (Techniplast, West Chester, Pa., USA) and fed with Teklad 2919 (Envigo, Somerset, N.J., USA), irradiated, 19% protein, 9% fat and 4% fiber mouse chow. Mice were maintained under controlled environmental conditions (22+/−2° C. temperature, 55+/−10% relative humidity and 12-hour light/dark cycle (7 a.m.-7 p.m.).
South Texas Accelerated Research Therapeutics (START) (San Antonio, Tex., USA) conducted this study. […] The 30 mg/kg dose was tolerated in preclinical safety studies and anticipated to result in exposures in excess of the therapeutic range for 28 days. Body weight, TV and animal observations were collected twice per week to day 18 (termination) for vehicle control mice and twice per week to day 28 (termination) for each of the other 3 groups. Mean±SD body weight and TV were analyzed with Kruskal-Wallis and Dunn multiple comparison test at day 18 and with Mann Whitney test at day 28 with statistical significance at p<0.05.

[5] = BTZ vs BTZ+ CX-8998 3 mg/kg, P > 0.05 ns
[6] = BTZ vs BTZ+ CX-8998 10 mg/kg, P > 0.05 ns
[7] = BTZ vs BTZ+ CX-8998 30 mg/kg, P > 0.05 ns
[8] = BTZ+ CX-8998 3 mg/kg vs BTZ+ CX-8998 10 mg/kg, P > 0.05 ns
[9] = BTZ+ CX-8998 3 mg/kg vs BTZ+ CX-8998 30 mg/kg, P > 0.05 ns
[10] = BTZ+ CX-8998 10 mg/kg vs BTZ+ CX-8998 30 mg/kg, P > 0.05 ns
[11] = CTRL vs BTZ+ CX-8998 3 mg/kg, P > 0.05 ns
[12] = CTRL vs BTZ+ CX-8998 10 mg/kg, P < 0.05 *
[13] = CTRL vs BTZ+ CX-8998 30 mg/kg, P > 0.05 ns

SMILES: CC(C)c1ccc(CC(=O)N[C@H](C)c2ccc(OCC(F)(F)F)cn2)cc1 [CX-8998, (R)-2-(4-Isopropylphenyl)-N-(1-(5-(2,2,2-Trifluoroethoxy)pyridin-2-yl)ethyl)acetamide]
- NCV OF SCIATIC NERVE (8 weeks), Difference in rank sum (Dunn's Multiple Comparison Test) ([1]; BTZ+ CX-8998 10 mg/kg vs BTZ+ CX-8998 30 mg/kg): −0.5152
- NCV OF SCIATIC NERVE (5 weeks), Difference in rank sum (Dunn's Multiple Comparison Test) ([1]; CTRL vs BTZ+ CX-8998 3 mg/kg): 8.917
- NCV OF SCIATIC NERVE (8 weeks), Difference in rank sum (Dunn's Multiple Comparison Test) ([1]; CTRL vs BTZ+ CX-8998 3 mg/kg): 11.98
- NCV OF SCIATIC NERVE (5 weeks), Difference in rank sum (Dunn's Multiple Comparison Test) ([1]; CTRL vs BTZ+ CX-8998 10 mg/kg): 4.833
- NCV OF SCIATIC NERVE (8 weeks), Difference in rank sum (Dunn's Multiple Comparison Test) ([1]; CTRL vs BTZ+ CX-8998 10 mg/kg): 2.848
- NCV OF SCIATIC NERVE (5 weeks), Difference in rank sum (Dunn's Multiple Comparison Test) ([1]; CTRL vs BTZ+ CX-8998 30 mg/kg): 7.500
- NCV OF SCIATIC NERVE (8 weeks), Difference in rank sum (Dunn's Multiple Comparison Test) ([1]; CTRL vs BTZ+ CX-8998 30 mg/kg): 2.333
- DYNAMIC TEST 5 WEEKS, Difference in rank sum (Dunn's Multiple Comparison Test) [2, 5]: −13.99
- DYNAMIC TEST 8 WEEKS, Difference in rank sum (Dunn's Multiple Comparison Test) [2, 5]: −15.63
- DYNAMIC TEST 5 WEEKS, Difference in rank sum (Dunn's Multiple Comparison Test) [2, 6]: −0.7411
- DYNAMIC TEST 8 WEEKS, Difference in rank sum (Dunn's Multiple Comparison Test) [2, 6]: −6.500
- DYNAMIC TEST 5 WEEKS, Difference in rank sum (Dunn's Multiple Comparison Test) [2, 7]: −6.679
- DYNAMIC TEST 8 WEEKS, Difference in rank sum (Dunn's Multiple Comparison Test) [2, 7]: −9.688
- DYNAMIC TEST 8 WEEKS, Difference in rank sum (Dunn's Multiple Comparison Test) [2, 8]: 9.125
- DYNAMIC TEST 5 WEEKS, Difference in rank sum (Dunn's Multiple Comparison Test) [2, 9]: 7.313
- DYNAMIC TEST 8 WEEKS, Difference in rank sum (Dunn's Multiple Comparison Test) [2, 9]: 5.938
- DYNAMIC TEST 5 WEEKS, Difference in rank sum (Dunn's Multiple Comparison Test) [2, 10]: −5.938
- DYNAMIC TEST 8 WEEKS, Difference in rank sum (Dunn's Multiple Comparison Test) [2, 10]: −3.188
- DYNAMIC TEST 5 WEEKS, Difference in rank sum (Dunn's Multiple Comparison Test) [2, 11]: 3.250
- DYNAMIC TEST 8 WEEKS, Difference in rank sum (Dunn's Multiple Comparison Test) [2, 11]: 7.563
- DYNAMIC TEST 5 WEEKS, Difference in rank sum (Dunn's Multiple Comparison Test) [2, 12]: 16.50
- DYNAMIC TEST 8 WEEKS, Difference in rank sum (Dunn's Multiple Comparison Test) [2, 12]: 16.69
- DYNAMIC TEST 5 WEEKS, Difference in rank sum (Dunn's Multiple Comparison Test) [2, 13]: 10.56
- DYNAMIC TEST 8 WEEKS, Difference in rank sum (Dunn's Multiple Comparison Test) [2, 13]: 13.50
- IENF DENSITY, Difference in rank sum (Dunn's Multiple Comparison Test) [3, 5]: −10.93
- IENF DENSITY, Difference in rank sum (Dunn's Multiple Comparison Test) [3, 6]: −0.04167
- IENF DENSITY, Difference in rank sum (Dunn's Multiple Comparison Test) ([3]; BTZ vs BTZ+ CX-8998 30 mg/kg, P < 0.05 *): −20.54
- IENF DENSITY, Difference in rank sum (Dunn's Multiple Comparison Test) [3, 8]: 10.89
- IENF DENSITY, Difference in rank sum (Dunn's Multiple Comparison Test) [3, 9]: −9.611
- IENF DENSITY, Difference in rank sum (Dunn's Multiple Comparison Test) ([3]; BTZ+ CX-8998 10 mg/kg vs BTZ+ CX-8998 30 mg/kg, P < 0.01 **): −20.50
- IENF DENSITY, Difference in rank sum (Dunn's Multiple Comparison Test) ([3]; CTRL vs BTZ+ CX-8998 3 mg/kg, P < 0.05 *): 18.06
- IENF DENSITY, Difference in rank sum (Dunn's Multiple Comparison Test) ([3]; CTRL vs BTZ+ CX-8998 10 mg/kg, P < 0.001 ***): 28.94
- IENF DENSITY, Difference in rank sum (Dunn's Multiple Comparison Test) [3, 13]: 8.444
- body weight [4]: transient body weight loss during first two weeks of treatment and no weight gain at day 18 and 28
